According to ChEMBL document CHEMBL5257159, “Insights into targeting SARS-CoV-2: design, synthesis, in silico studies and antiviral evaluation of new dimethylxanthine derivatives” (RSC Med Chem, 2023):

Key:
[1] = tested on: SARS-CoV-2; test: Antiviral activity against SARS-CoV-2 NRC-03-nhCoV infected in african green monkey Vero E6 cells assessed as inhibition of virus-induced cytopathic effect measured after 72 hrs by crystal violet staining based assay; assay type: functional, organism-based; details: Severe acute respiratory syndrome coronavirus 2, NRC-03-nhCoV, Vero C1008, 72 h
[2] = Cytotoxicity against African green monkey Vero E6 cells measured after 72 hrs by MTT assay; assay type: toxicity, cell-based, Vero C1008; details: chlorocebus sabaeus
[3] = Selectivity index, ratio of CC50 for african green monkey Vero E6 cells to IC50 for antiviral activity against SARS-CoV-2 NRC-03-nhCoV infected in african green monkey Vero E6 cells; assay type: toxicity, Vero C1008; details: read-out: Ratio CC50/IC50
[4] = target: Replicase polyprotein 1ab (Severe acute respiratory syndrome coronavirus 2, UniProt P0DTD1); test: Inhibition of recombinant SARS-CoV-2 main protease expressed in Escherichia coli BL21 using Dabcyl-EDANS and Boc-Abu-Tle-Leu-Gln-AMC as substrate

Structure (SMILES)	IC50 [1] [µM]	CC50 at 72 h [2] [µM]	selectivity ratio [3]	IC50 [4] [µM]
Cn1c(=O)c2c(nc3n2CC=C(O)N3c2ccc(S(N)(=O)=O)cc2)n(C)c1=O	16	2040	127	
Cn1c(=O)c2c(nc3n(CC#Cc4ccc(Cl)c(Cl)c4)ccn23)n(C)c1=O				4.7
